Measurements: patent US20130289083A1, “IDO Inhibitors” (priority 2007, published 2013)
Read-outs that look alike come from different tables or passages of the source.

Legend:
human IDO = human IDO (Homo sapiens, UniProt P14902); assay: Cell based IDO/kynurenine assay in IDO-293-T-Rex cells; conditions: kynurenine production, read-out: hIDO EC50
Method in brief: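 293-T-REx cells stably carrying doxycycline-inducible human or murine IDO were incubated with inhibitors in induction medium for 16 h at 37° C. Medium was TCA-treated at 60° C and reacted with p-dimethylaminobenzaldehyde. Kynurenine was quantified by absorbance at 480 nm.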

murine IDO = biological target: T1, murine IDO (Mus musculus, UniProt P28776); assay: Cell based IDO/kynurenine assay in 293-T-Rex cells expressing murine IDO; conditions: cells expressing murine IDO, read-out: mIDO EC50
T1 construct: expressed in transfected cells; host or cells: 293-T-REx cells (Invitrogen), doxycycline-inducible CMV-tet promoter
Description: Transfected cells were selected in DBZ medium (DMEM, 10% FBS, 1× Penicillin+Streptomycin, 2 mM L-glutamine, 5 μg/mL blasticidin and 25 μg/ml Zeocin) at 37° C. with a 5% CO2 in air atmosphere. Individual clones were isolated by limiting dilution cloning from these populations.
The cells incubated in Neutral medium serve as negative control of the assay. The cells incubated in Induction medium and without inhibitor serve as the positive control of the assay. The incubation is carried out for 16 h at 37° C. in a cell culture incubator. 200 μL of medium are transferred to U-bottom polypropylene 96-well plates containing 25 μL of 30% TCA, incubated 30 minutes at 60° C. and centrifuged at 3400 g for 5 minutes. 150 μL of the clear supernatant is transferred to a polystyrene 96-well plate containing 50 μL of 4% (w/v) of p-dimethylaminobenzaldehyde in acetic acid, incubated for 10 min. Kynurenine concentration is determined by measuring the absorbance at 480 nm.

[1] = biological target: purified human IDO protein (Homo sapiens, UniProt P14902); assay: Enzymatic IDO assay (kynurenine production, absorbance 480 nm); conditions: enzymatic activity
[2] = Table 15, 293T cells expressing human IDO
[3] = hIDO IC50, Table 15, recombinant human IDO
[4] = Table 16, 293T cells expressing human IDO
[5] = hIDO IC50, Table 16, recombinant human IDO

Chain of purified human IDO protein (P14902 whole entry P110S/E119G): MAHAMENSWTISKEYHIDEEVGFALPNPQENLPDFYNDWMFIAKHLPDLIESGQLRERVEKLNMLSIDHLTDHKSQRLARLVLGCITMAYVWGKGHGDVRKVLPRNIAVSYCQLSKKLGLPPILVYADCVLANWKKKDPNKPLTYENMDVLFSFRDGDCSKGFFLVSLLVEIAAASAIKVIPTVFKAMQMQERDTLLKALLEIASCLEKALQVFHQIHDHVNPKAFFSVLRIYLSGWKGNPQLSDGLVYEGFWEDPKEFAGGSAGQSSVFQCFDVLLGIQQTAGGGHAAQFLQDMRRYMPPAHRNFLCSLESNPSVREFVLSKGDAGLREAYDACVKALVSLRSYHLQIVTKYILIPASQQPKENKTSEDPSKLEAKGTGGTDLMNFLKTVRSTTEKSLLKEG
Chain of human IDO (P14902 whole entry): as the sequence (P14902 whole entry P110S/E119G) above, with S110P, G119E counted along it
T1 sequence (P28776 whole entry): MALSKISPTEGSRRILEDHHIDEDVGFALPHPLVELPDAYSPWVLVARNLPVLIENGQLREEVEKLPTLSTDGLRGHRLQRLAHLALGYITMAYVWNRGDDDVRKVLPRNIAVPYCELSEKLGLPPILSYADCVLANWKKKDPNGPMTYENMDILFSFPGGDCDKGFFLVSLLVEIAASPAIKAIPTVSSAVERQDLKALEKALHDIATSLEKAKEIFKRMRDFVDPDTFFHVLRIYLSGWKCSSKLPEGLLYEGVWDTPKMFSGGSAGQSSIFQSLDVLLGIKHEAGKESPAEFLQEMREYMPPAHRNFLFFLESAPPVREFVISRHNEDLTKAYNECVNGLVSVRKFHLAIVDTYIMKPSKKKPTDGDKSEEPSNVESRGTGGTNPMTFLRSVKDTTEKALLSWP

Structure (SMILES)	EC50 (human IDO; [2])	EC50 (murine IDO; Table 15)	IC50 [1, 3]	EC50 (human IDO; [4])	EC50 (murine IDO; Table 16)	IC50 [1, 5]	EC50 (human IDO; 293T cell line stably expressing human IDO, values reported in ranges)	IC50 ([1]; hIDO IC50, recombinant human IDO, values reported in ranges)
Cc1nc(-c2ccccc2)ncc1CON [compound 1740, O-((4-methyl-2-phenylpyrimidin-5-yl)methyl)hydroxylamine]	< 10 µM	< 10 µM	10 to 100 µM	–	–	–	–	–
NOCc1cc(Cl)ccc1-c1ccccc1 [compound 1916, O-((4-chlorobiphenyl-2-yl)methyl)hydroxylamine]	< 10 µM	10 to 100 µM	< 10 µM	–	–	–	–	–
NOC(CC1CCCCC1)c1ccccc1 (centres unmarked) [compound 1925, O-(2-cyclohexyl-1-phenylethyl)hydroxylamine]	< 10 µM	10 to 100 µM	10 to 100 µM	–	–	–	–	–
NOCc1c(F)c(F)c(F)c(F)c1F [compound 1667, O-(perfluorobenzyl)hydroxylamine]	–	–	–	< 10 µM	10 to 100 µM	10 to 100 µM	–	–
NOCc1cc(Cl)cc(-c2ccc(Cl)cc2)c1 [compound 1893, O-((4′,5-dichlorobiphenyl-3-yl)methyl)hydroxylamine]	< 10 µM	10 to 100 µM	< 10 µM	–	–	–	–	–
NOCc1ccccc1-c1ccccc1 [compound 1827, O-(biphenyl-2-ylmethyl)hydroxylamine]	< 10 µM	10 to 100 µM	< 10 µM	–	–	–	–	–
NOC(c1ccccc1)c1ccccc1 [compound 1922, O-benzhydrylhydroxylamine]	–	–	–	< 10 µM	< 10 µM	< 10 µM	–	–
COC(=O)CCC(ON)c1ccccc1 (centres unmarked) [compound 1880, methyl 4-(aminooxy)-4-phenylbutanoate]	< 10 µM	100 to 1000 µM	< 10 µM	–	–	–	–	–
COc1ccc(-c2ccc(Cl)cc2CON)cc1 [compound 1914, O-((4-chloro-4′-methoxybiphenyl-2-yl)methyl)hydroxylamine]	< 10 µM	10 to 100 µM	< 10 µM	–	–	–	–	–
NOC(CCc1ccccc1)c1ccccc1 (centres unmarked) [compound 1924, O-(1,3-diphenylpropyl)hydroxylamine]	< 10 µM	10 to 100 µM	< 10 µM	–	–	–	–	–
C=CCC(ON)c1cccc([N+](=O)[O-])c1 (centres unmarked) [compound 1755, O-(1-(3-nitrophenyl)but-3-enyl)hydroxylamine]	–	–	–	< 10 µM	< 10 µM	< 10 µM	–	–
NOCc1cc(Cl)ccc1-c1ccc(C(F)(F)F)cc1 [compound 1917, O-((4-chloro-4′-(trifluoromethyl)biphenyl-2-yl)methyl)hydroxylamine]	< 10 µM	10 to 100 µM	< 10 µM	–	–	–	–	–
NOC(Cc1ccccc1)c1ccccc1 (centres unmarked) [compound 1921, O-(1,2-diphenylethyl)hydroxylamine]	< 10 µM	10 to 100 µM	< 10 µM	–	–	–	–	–
NOCc1cc(Cl)ccc1-c1ccc(Cl)c(Cl)c1 [compound 1919, O-((3′,4,4′-trichlorobiphenyl-2-yl)methyl)hydroxylamine]	< 10 µM	10 to 100 µM	< 10 µM	–	–	–	–	–
NOCc1cc(Cl)ccc1-c1cncnc1 [compound 1923, O-(5-chloro-2-(pyrimidin-5-yl)benzyl)hydroxylamine]	< 10 µM	< 10 µM	< 10 µM	–	–	–	–	–
NOc1cccc2ccccc12 [compound 1903, O-(naphthalen-1-yl)hydroxylamine]	10 to 100 µM	10 to 100 µM	< 10 µM	–	–	–	–	–
COC(=O)C(ON)c1ccccc1 (centres unmarked) [compound 1886, methyl 2-(aminooxy)-2-phenylacetate]	< 10 µM	< 10 µM	< 10 µM	–	–	–	–	–
NOCc1ccccc1-c1ccncc1 [compound 1889, O-(2-(pyridin-4-yl)benzyl)hydroxylamine]	< 10 µM	100 to 1000 µM	10 to 100 µM	–	–	–	–	–
NOCc1ccccc1Nc1ccccc1 [compound 1871, 2-(aminooxymethyl)-N-phenylaniline]	< 10 µM	10 to 100 µM	< 10 µM	–	–	–	–	–
NOCCOc1ccccc1 [compound 1679, O-(2-phenoxyethyl)hydroxylamine]	–	–	–	< 10 µM	< 10 µM	< 10 µM	–	–

The remaining lines, values ahead:

EC50 (human IDO; [2])	EC50 (murine IDO; Table 15)	IC50 [1, 3]	EC50 (human IDO; [4])	EC50 (murine IDO; Table 16)	IC50 [1, 5]	EC50 (human IDO; 293T cell line stably expressing human IDO, values reported in ranges)	IC50 ([1]; hIDO IC50, recombinant human IDO, values reported in ranges)	Structure (SMILES)
< 10 µM	< 10 µM	< 10 µM	–	–	–	–	–	NOCc1cc2ccccc2o1 [compound 1774, O-(benzofuran-2-ylmethyl)hydroxylamine]
< 10 µM	< 10 µM	10 to 100 µM	–	–	–	–	–	NOCc1ccccn1 [compound 1739, O-(pyridin-2-ylmethyl)hydroxylamine]
–	–	–	< 10 µM	10 to 100 µM	10 to 100 µM	–	–	COc1ccc(CON)cc1 [compound 1815, O-(4-methoxybenzyl)hydroxylamine]
–	–	–	< 10 µM	< 10 µM	< 10 µM	–	–	NOCc1cccc(Br)c1 [compound 1656, O-(3-bromobenzyl)hydroxylamine]
< 10 µM	10 to 100 µM	< 10 µM	–	–	–	–	–	COc1ccc(-c2cccc(CON)c2)cc1 [compound 1882, O-((4′-methoxybiphenyl-3-yl)methyl)hydroxylamine]
–	–	–	< 10 µM	10 to 100 µM	< 10 µM	–	–	COC(=O)c1ccc(CON)cc1 [compound 1684, methyl 4-(aminooxymethyl)benzoate]
–	–	–	< 10 µM	> 1000 µM	100 to 1000 µM	–	–	NOCc1ccc(F)c(Cl)c1 [compound 1673, O-(3-chloro-4-fluorobenzyl)hydroxylamine]
–	–	–	< 10 µM	10 to 100 µM	10 to 100 µM	–	–	COc1ccccc1CON [compound 1678, O-(2-methoxybenzyl)hydroxylamine]
< 10 µM	10 to 100 µM	10 to 100 µM	–	–	–	–	–	NOCc1ccc2c(c1)OCCO2 [compound 1750, O-((2,3-dihydrobenzo[b][1,4]dioxin-6-yl)methyl)hydroxylamine]
< 10 µM	< 10 µM	< 10 µM	–	–	–	–	–	COc1ccc(OC)c(CON)c1 [compound 1771, O-(2,5-dimethoxybenzyl)hydroxylamine]
–	–	–	< 10 µM	< 10 µM	< 10 µM	< 20 µM	< 20 µM	NOCc1cccc([N+](=O)[O-])c1 [compound 317, O-(3-nitrobenzyl)hydroxylamine]
–	–	–	10 to 100 µM	< 10 µM	10 to 100 µM	–	–	NOCc1cccc(CON)c1 [compound 1823, O,O′-(1,3-phenylenebis(methylene))bis(hydroxylamine)]
< 10 µM	10 to 100 µM	10 to 100 µM	–	–	–	–	–	NOCc1c(F)cccc1Cl [compound 1674, O-(2-chloro-6-fluorobenzyl)hydroxylamine]
–	–	–	< 10 µM	< 10 µM	< 10 µM	–	–	NOCc1cccc(C(F)(F)F)c1 [compound 1775, O-(3-(trifluoromethyl)benzyl)hydroxylamine]
< 10 µM	< 10 µM	< 10 µM	–	–	–	–	–	NOCc1cccc(NCc2ccccc2)c1 [compound 1872, 3-(aminooxymethyl)-N-benzylaniline]
–	–	–	< 10 µM	10 to 100 µM	< 10 µM	–	–	NOCc1ccccc1C(F)(F)F [compound 1677, O-(2-(trifluoromethyl)benzyl)hydroxylamine]
< 10 µM	10 to 100 µM	< 10 µM	–	–	–	–	–	NOCc1ccc(F)cc1Cl [compound 1676, O-(2-chloro-4-fluorobenzyl)hydroxylamine]
–	–	–	< 10 µM	10 to 100 µM	10 to 100 µM	–	–	Cc1cccc(CON)c1 [compound 1692, O-(3-methylbenzyl)hydroxylamine]
< 10 µM	100 to 1000 µM	10 to 100 µM	–	–	–	–	–	NOCc1cccc(-c2ccncc2)c1 [compound 1888, O-(3-(pyridin-4-yl)benzyl)hydroxylamine]
–	–	–	< 10 µM	< 10 µM	< 10 µM	–	–	NOCCc1cccc([N+](=O)[O-])c1 [compound 1752, O-(3-nitrophenethyl)hydroxylamine]
< 10 µM	10 to 100 µM	< 10 µM	–	–	–	–	–	NOCc1csc2ccc(Cl)cc12 [compound 1743, O-((5-chlorobenzo[b]thiophen-3-yl)methyl)hydroxylamine]
–	–	–	< 10 µM	< 10 µM	< 10 µM	–	–	COc1cccc(CON)c1 [compound 1682, O-(3-methoxybenzyl)hydroxylamine]
< 10 µM	10 to 100 µM	10 to 100 µM	–	–	–	–	–	NOCc1cccc(N)c1 [compound 1824, 3-(aminooxymethyl)aniline]
–	–	–	< 10 µM	< 10 µM	< 10 µM	–	–	NOCc1ccccc1 [compound 1666, O-benzylhydroxylamine]
–	–	–	< 10 µM	10 to 100 µM	< 10 µM	–	–	NOCc1ccccc1[N+](=O)[O-] [compound 811, O-(2-nitrobenzyl)hydroxylamine]
